Results as given in ChEMBL document CHEMBL1201862, “PubChem BioAssay data set” (2004).
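Assay format: 96-well plates, 48-hour exposure. Abbreviation: GI50, concentration required for 50% inhibition of growth.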 Activity calls are given as the source filed them. Rule as the data show it: active = GI50 up to about 1.1 µM and inactive = higher.

Key:
Test in all cases: inhibition of tumour cell growth, NCI panel, 48 h
[1] = test system: HOP-18
[2] = test system: HT-29
[3] = test system: HCT-15
[4] = test system: RXF 393
[5] = test system: Malme-3M
[6] = test system: ACHN
[7] = test system: SF-295
[8] = test system: K562
[9] = test system: M19-MEL
[10] = test system: IGROV-1
[11] = test system: HCT-116
[12] = test system: SK-OV-3
[13] = test system: CCRF-CEM
[14] = test system: OVCAR-4
[15] = test system: SNB-75
[16] = test system: HL-60
[17] = test system: TK-10
[18] = test system: HCC 2998
[19] = test system: HOP-92
[20] = test system: LXFL 529
[21] = test system: OVCAR-3
[22] = test system: U-251
[23] = test system: UACC-257
[24] = test system: NCI-H23
[25] = test system: UACC-62
[26] = test system: DLD-1
[27] = test system: M14
[28] = test system: OVCAR-5
[29] = test system: LOX IMVI
[30] = test system: SN12C
[31] = test system: EKVX
[32] = test system: A549
[33] = test system: SR
[34] = test system: HOP-62
[35] = test system: MOLT-4
[36] = test system: SK-MEL-5
[37] = test system: OVCAR-8
[38] = test system: XF498
[39] = test system: SW-620
[40] = test system: UO-31
[41] = test system: KM-20L2
[42] = test system: SNB-78
[43] = test system: SF-539
[44] = test system: NCI-H460
[45] = test system: SK-MEL-2
[46] = test system: KM12
[47] = test system: NCI-H522
[48] = test system: 786-0
[49] = test system: SK-MEL-28
[50] = test system: SNB-19
[51] = test system: A498
[52] = test system: CAKI-1
[53] = test system: SF-268
[54] = test system: DMS-273
[55] = test system: NCI-H226
[56] = test system: COLO 205

## CCOCc1cc(=O)c2c(OC)cc3c(c2o1)CCC(C)(C)O3
[1]
  GI50: > 100 µM (inactive)
[2]
  GI50: > 100 µM (inactive)
[3]
  GI50: > 100 µM
[4]
  GI50: > 100 µM (inactive)
[5]
  GI50: > 100 µM (inactive)
[6]
  GI50: > 100 µM (inactive)
[7]
  GI50: > 100 µM (inactive)
[8]
  GI50: > 100 µM (inactive)
[9]
  GI50: > 100 µM (inactive)
[10]
  GI50: > 100 µM (inactive)
[11]
  GI50: > 100 µM (inactive)
[12]
  GI50: > 100 µM (inactive)
[13]
  GI50: > 100 µM (inactive)
[14]
  GI50: > 100 µM (inactive)
[15]
  GI50: > 100 µM (inactive)
[16]
  GI50: > 100 µM (inactive)
[17]
  GI50: > 100 µM (inactive)
[18]
  GI50: > 100 µM (inactive)
[19]
  GI50: 33.4 µM (inactive)
[20]
  GI50: > 100 µM (inactive)
[21]
  GI50: > 100 µM (inactive)
[22]
  GI50: > 100 µM (inactive)
[23]
  GI50: > 100 µM (inactive)
[24]
  GI50: > 100 µM (inactive)
[25]
  GI50: > 100 µM (inactive)
[26]
  GI50: > 100 µM (inactive)
[27]
  GI50: > 100 µM (inactive)
[28]
  GI50: > 100 µM (inactive)
[29]
  GI50: > 100 µM (inactive)
[30]
  GI50: > 100 µM (inactive)
[31]
  GI50: > 100 µM (inactive)
[32]
  GI50: > 100 µM (inactive)
[33]
  GI50: > 100 µM (inactive)
[34]
  GI50: > 100 µM (inactive)
[35]
  GI50: > 100 µM (inactive)
[36]
  GI50: > 100 µM (inactive)
[37]
  GI50: > 100 µM (inactive)
[38]
  GI50: > 100 µM (inactive)
[39]
  GI50: > 100 µM (inactive)
[40]
  GI50: > 100 µM (inactive)
[41]
  GI50: > 100 µM (inactive)
[42]
  GI50: > 100 µM (inactive)
[43]
  GI50: > 100 µM (inactive)
[44]
  GI50: > 100 µM (inactive)
[45]
  GI50: > 100 µM (inactive)
[46]
  GI50: > 100 µM (inactive)
[47]
  GI50: > 100 µM (inactive)
[48]
  GI50: > 100 µM (inactive)
[49]
  GI50: > 100 µM (inactive)

## CC1(C)C(=O)/C=C\C(=O)C(C)(C)C2=CC=C(O2)C(C)(C)C(=O)/C=C\C(=O)C(C)(C)C2=CC=C1O2
[1]
  GI50: > 100 µM (inactive)
[2]
  GI50: > 100 µM (inactive)
[3]
  GI50: > 100 µM
[4]
  GI50: > 100 µM (inactive)
[5]
  GI50: > 100 µM (inactive)
[6]
  GI50: > 100 µM (inactive)
[7]
  GI50: > 100 µM (inactive)
[8]
  GI50: > 100 µM (inactive)
[9]
  GI50: > 100 µM (inactive)
[10]
  GI50: > 100 µM (inactive)
[11]
  GI50: > 100 µM (inactive)
[12]
  GI50: > 100 µM (inactive)
[13]
  GI50: > 100 µM (inactive)
[14]
  GI50: > 100 µM (inactive)
[50]
  GI50: > 100 µM (inactive)
[16]
  GI50: > 100 µM (inactive)
[17]
  GI50: > 100 µM (inactive)
[18]
  GI50: > 100 µM (inactive)
[19]
  GI50: > 100 µM (inactive)
[20]
  GI50: > 100 µM (inactive)
[21]
  GI50: > 100 µM (inactive)
[51]
  GI50: > 100 µM (inactive)
[22]
  GI50: > 100 µM (inactive)
[52]
  GI50: > 100 µM (inactive)
[23]
  GI50: > 100 µM (inactive)
[24]
  GI50: > 100 µM (inactive)
[53]
  GI50: > 100 µM (inactive)
[54]
  GI50: > 100 µM (inactive)
[28]
  GI50: > 100 µM (inactive)
[29]
  GI50: > 100 µM (inactive)
[30]
  GI50: > 100 µM (inactive)
[31]
  GI50: > 100 µM (inactive)
[55]
  GI50: > 100 µM (inactive)
[32]
  GI50: > 100 µM (inactive)
[33]
  GI50: > 100 µM (inactive)
[34]
  GI50: > 100 µM (inactive)
[35]
  GI50: > 100 µM (inactive)
[37]
  GI50: > 100 µM (inactive)
[38]
  GI50: > 100 µM (inactive)
[39]
  GI50: > 100 µM (inactive)
[41]
  GI50: > 100 µM (inactive)
[42]
  GI50: > 100 µM (inactive)
[44]
  GI50: > 100 µM (inactive)
[45]
  GI50: > 100 µM (inactive)
[46]
  GI50: > 100 µM (inactive)
[56]
  GI50: > 100 µM (inactive)
[47]
  GI50: > 100 µM (inactive)
[48]
  GI50: > 100 µM (inactive)
[49]
  GI50: > 100 µM (inactive)
